The results in this text go back to patent publication US7524964B2, “Tetrahydrothiopyrano pyrazole cannabinoid modulators” (Janssen Pharmaceutica NV, priority 2005, dated 2009).

One test deals with T1, human CB-2 receptor (Homo sapiens, UniProt P34972).
T1 construct: expressed in transfected cells; host or cells: SK-N-MC cells, pcDNA3 CB-2 (human), semi-purified membranes
In words: Binding assay, cannabinoid CB2 receptor ([3H]-CP-55,940 displacement). The following applies: for inhibition at 1 µM: test concentration 1 μM (superscript b); for inhibition at 1 µM / inhibition at 10 µM: read-out: CB2 binding percent inhibition. On the procedure:
(§1) Binding Assay for CB1 or CB2 Agonists or Inverse Agonists
(§2) The human CB-1 and CB-2 receptors were stably expressed in SK-N-MC cells transfected with pcDNA3 CB-1 (human) or pcDNA3 CB-2 (human). The cells were grown in T-180 cell culture flasks under standard cell culture conditions at 37° C. in a 5% CO2 atmosphere. The cells were harvested by trypsinization and homogenized in a homogenization buffer (10 mM Tris, 0.2 mM MgCl2, 5 mM KCl, with protease inhibitors aprotinin, leupeptin, pepstatin A and bacitracin) and centrifuged (2000 g). The supernatant was then centrifuged in 2M sucrose (31,300 g) to produce a semi-purified membrane pellet. The pellet was resuspended in homogenization and store at −80° C.
(§3) On the day of the assay, the pellet was thawed on ice and diluted in assay buffer (50 mM Tris-HCl, 5 mM MgCl2, 2.5 mM EDTA, 0.5 mg/mL fatty acid free bovine serum albumin, pH 7.5). The diluted membrane was added with buffer, test compound or standard and the radioligand [H]^3+-CP-55,940_(0.2 nM) to the wells of a 96-well polypropylene plate. Non-specific binding was measured in wells containing 10 uM WIN 55,212. The plate was covered and incubated for 90 minutes at 30° C. The contents were then aspirated onto a Packard Unifilter G/C filter bottom plate prewet with 0.5% polyethyleneimine. The wells of the polypropylene plate were rinsed and aspirated seven times with a 0.9% saline-0.5% Tween 20 solution. The Unifilter plate was dried, a scintillation cocktail was added to each well and the counts representing binding were quantitated in a TopCount scintillation counter.
(§4) The IC50 binding values for compounds tested were calculated by linear regression and were obtained from studies in which varying compound concentrations were used. Where an IC50 was not obtained, test results are provided as percent inhibition at a test concentration of ^a0.2 μM, ^b1 μM or ^c10 μM.

In a further test the target is human CB1 receptor (Homo sapiens, UniProt P21554). The test can be described thus: Binding assay, cannabinoid CB1 receptor ([3H]-CP-55,940 displacement). Set-up: expressed in transfected cells; host or cells: SK-N-MC cells, pcDNA3 CB-1 (human), semi-purified membranes. The following applies: read-out: CB1 binding percent inhibition; for inhibition at 1 µM: test concentration 1 μM (superscript b); for inhibition at 10 µM: test concentration 10 μM (superscript c). As for the experimental part: as §1, §2, §3, §4
human CB1 receptor, sequence (P21554 whole entry): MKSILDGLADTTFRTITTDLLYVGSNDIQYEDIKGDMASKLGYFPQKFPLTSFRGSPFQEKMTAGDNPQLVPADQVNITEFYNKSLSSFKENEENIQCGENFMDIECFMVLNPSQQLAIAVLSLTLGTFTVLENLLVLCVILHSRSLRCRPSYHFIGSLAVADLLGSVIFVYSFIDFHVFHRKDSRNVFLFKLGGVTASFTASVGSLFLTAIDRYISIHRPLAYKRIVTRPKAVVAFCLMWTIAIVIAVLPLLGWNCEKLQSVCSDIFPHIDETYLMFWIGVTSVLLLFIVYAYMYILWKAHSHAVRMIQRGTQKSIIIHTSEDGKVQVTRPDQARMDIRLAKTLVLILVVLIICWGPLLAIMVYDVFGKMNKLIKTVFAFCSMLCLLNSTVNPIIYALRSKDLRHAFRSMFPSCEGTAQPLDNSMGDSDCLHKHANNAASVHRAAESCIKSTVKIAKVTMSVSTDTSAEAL

[1] abbreviates: test concentration 10 μM (superscript c).

T1 sequence (P34972 whole entry): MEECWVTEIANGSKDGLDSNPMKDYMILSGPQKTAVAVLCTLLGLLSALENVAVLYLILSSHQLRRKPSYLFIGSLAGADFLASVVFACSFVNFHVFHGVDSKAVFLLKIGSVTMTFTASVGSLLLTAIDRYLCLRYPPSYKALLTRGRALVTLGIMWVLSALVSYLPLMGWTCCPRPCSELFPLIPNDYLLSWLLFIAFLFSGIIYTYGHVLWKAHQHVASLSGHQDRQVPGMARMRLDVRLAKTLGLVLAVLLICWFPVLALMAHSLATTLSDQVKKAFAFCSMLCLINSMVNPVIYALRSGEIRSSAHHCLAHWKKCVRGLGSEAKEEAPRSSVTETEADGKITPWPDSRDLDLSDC

By inhibition is commonly meant the percentage by which the read-out fell short of the control. With `C[C@@H](NS(=O)(=O)/C=C/c1c2c(nn1Cc1ccccc1)CCSC2)c1ccccc1` [Cpd 2, (E)-2-(2-benzyl-2,4,6,7-tetrahydro-thiopyrano[4,3-c]pyrazol-3-yl)-ethenesulfonic acid [(1R)-1-phenyl-ethyl]-amide], the inhibition at 1 µM on human CB-2 receptor stood at 0%; on human CB1 receptor it was 13%.
For `C[C@@H](NS(=O)(=O)/C=C/c1c2c(nn1Cc1ccccc1)CCS(=O)(=O)C2)c1ccccc1` [Cpd 4, (E)-2-(2-benzyl-5,5-dioxo-4,5,6,7-tetrahydro-2H-5λ^6-thiopyrano[4,3-c]pyrazol-3-yl)-ethenesulfonic acid [(1R)-1-phenyl-ethyl]-amide] the same measures were 0% and 12%.
For `C[C@H](NS(=O)(=O)/C=C/c1c2c(nn1Cc1ccccc1)CCSC2)c1ccccc1` [Cpd 5, (E)-2-(2-benzyl-2,4,6,7-tetrahydro-thiopyrano[4,3-c]pyrazol-3-yl)-ethenesulfonic acid [(1S)-1-phenyl-ethyl]-amide] the same measures were 9% and 9%.
The like results for `C[C@@H](NS(=O)(=O)/C=C/c1c2c(nn1Cc1ccccc1)CCSC2)C1CCCCC1` [Cpd 6, (E)-2-(2-benzyl-2,4,6,7-tetrahydro-thiopyrano[4,3-c]pyrazol-3-yl)-ethenesulfonic acid [(1R)-1-cyclohexyl-ethyl]-amide] were, in that order, 0% and 16%.
As to `C[C@@H](NS(=O)(=O)/C=C/c1nn(Cc2ccccc2)c2c1CSCC2)c1ccccc1` [Cpd 7, (E)-2-(1-benzyl-1,4,6,7-tetrahydro-thiopyrano[4,3-c]pyrazol-3-yl)-ethenesulfonic acid [(1R)-1-phenyl-ethyl]-amide], the results for the inhibition at 1 µM on human CB-2 receptor and on human CB1 receptor were 44% and 15%, respectively.
Turning to `C[C@H](NS(=O)(=O)/C=C/c1c2c(nn1Cc1ccccc1)CCSC2)C1CCCCC1` [Cpd 8], the inhibition at 1 µM was determined as 5% on human CB-2 receptor and 8% on human CB1 receptor.
For `C[C@@H](NS(=O)(=O)/C=C/c1nn(Cc2ccccc2)c2c1CS(=O)(=O)CC2)c1ccccc1` [Cpd 9, (E)-2-(1-benzyl-5,5-dioxo-4,5,6,7-tetrahydro-1H-5λ^6-thiopyrano[4-3-c]pyrazol-3-yl)-ethenesulfonic acid [(1R)-1-phenyl-ethyl]-amide] the same measures were 6% and 6%.
For `C[C@H](NS(=O)(=O)/C=C/c1c2c(nn1Cc1ccccc1)CCS(=O)(=O)C2)c1ccccc1` [Cpd 10, (E)-2-(2-benzyl-5,5-dioxo-4,5,6,7-tetrahydro-2H-5λ^6-thiopyrano[4,3-c]pyrazol-3-yl)-ethenesulfonic acid [(1S)-1-phenyl-ethyl]-amide] the same measures were 36% and 0%.
Take `C[C@@H](NS(=O)(=O)/C=C/c1nn(Cc2ccccc2)c2c1CSCC2)C1CCCCC1` [Cpd 11, (E)-2-(1-benzyl-1,4,6,7-tetrahydro-thiopyrano[4,3-c]pyrazol-3-yl)-ethenesulfonic acid [(1R)-1-cyclohexyl-ethyl]-amide]: the inhibition at 1 µM on human CB-2 receptor amounted to 39%; on human CB1 receptor, 29%.
For `C[C@H](NS(=O)(=O)/C=C/c1nn(Cc2ccccc2)c2c1CSCC2)C1CCCCC1` [Cpd 12, (E)-2-(1-benzyl-1,4,6,7-tetrahydro-thiopyrano[4,3-c]pyrazol-3-yl)-ethenesulfonic acid [(1S)-1-cyclohexyl-ethyl]-amide] the same measures were 42% and 15%.
Consider `C[C@@H](NS(=O)(=O)/C=C/c1nn(Cc2ccccc2)c2c1CS(=O)(=O)CC2)C1CCCCC1` [Cpd 14, (E)-2-(1-benzyl-5,5-dioxo-4,5,6,7-tetrahydro-1H-5λ^6-thiopyrano[4,3-c]pyrazol-3-yl)-ethenesulfonic acid [(1R)-1-cyclohexyl-ethyl]-amide], for which the inhibition at 1 µM at human CB-2 receptor and on human CB1 receptor was 0% in each case.
Regarding `C[C@H](NS(=O)(=O)/C=C/c1nn(Cc2ccccc2)c2c1CS(=O)(=O)CC2)C1CCCCC1` [Cpd 15, (E)-2-(1-benzyl-5,5-dioxo-4,5,6,7-tetrahydro-1H-5λ^6-thiopyrano[4,3-c]pyrazol-3-yl)-ethenesulfonic acid [(1S)-1-cyclohexyl-ethyl]-amide], the inhibition at 1 µM at human CB-2 receptor was 0%; at human CB1 receptor, 4%.
On to `C[C@@H](NS(=O)(=O)/C=C/c1c2c(nn1Cc1ccccc1)CCS(=O)(=O)C2)C1CCCCC1` [Cpd 16, (E)-2-(2-benzyl-5,5-dioxo-4,5,6,7-tetrahydro-2H-5λ^6-thiopyrano[4,3-c]pyrazol-3-yl)-ethenesulfonic acid [(1R)-1-cyclohexyl-ethyl]-amide], for which the inhibition at 1 µM at human CB-2 receptor and at human CB1 receptor was 0% each time.
Turning to `C[C@H](NS(=O)(=O)/C=C/c1c2c(nn1Cc1ccccc1)CCS(=O)(=O)C2)C1CCCCC1` [Cpd 17, (E)-2-(2-benzyl-5,5-dioxo-4,5,6,7-tetrahydro-2H-5λ^6-thiopyrano[4,3-c]pyrazol-3-yl)-ethenesulfonic acid [(1S)-1-cyclohexyl-ethyl]-amide], the inhibition at 1 µM is 24% at human CB-2 receptor and 0% on human CB1 receptor.
For `C[C@H](NS(=O)(=O)/C=C/c1nn(Cc2ccccc2)c2c1CS(=O)(=O)CC2)c1ccccc1` [Cpd 18, (E)-2-(1-benzyl-5,5-dioxo-4,5,6,7-tetrahydro-1H-5λ^6-thiopyrano[4,3-c]pyrazol-3-yl)-ethenesulfonic acid [(1S)-1-phenyl-ethyl]-amide] the same measures were 40% and 0%.
Regarding `CC(NS(=O)(=O)/C=C/c1c2c(nn1Cc1ccccc1)CC[S+]([O-])C2)c1ccccc1` (centres unmarked) [Cpd 22, (E)-2-(2-benzyl-5-oxo-4,5,6,7-tetrahydro-2H-5λ^4-thiopyrano[4,3-c]pyrazol-3-yl)-ethenesulfonic acid (1-phenyl-ethyl)-amide], the inhibition at 1 µM was 0% at human CB-2 receptor and 11% on human CB1 receptor. Moreover, the results for the inhibition at 10 µM at human CB-2 receptor (setting [1]) and at human CB1 receptor were 2% and 0%, respectively.
As for `CC(NS(=O)(=O)/C=C/c1c2c(nn1Cc1ccccc1)CC[S+]([O-])C2)C1CCCCC1` (centres unmarked) [Cpd 26, (E)-2-(2-benzyl-5-oxo-4,5,6,7-tetrahydro-2H-5λ^4-thiopyrano[4,3-c]pyrazol-3-yl)-ethenesulfonic acid (1-cyclohexyl-ethyl)-amide], the “CB2 binding percent inhibition” value at human CB-2 receptor (test concentration 10 μM (superscript c), 10 µM) came to 32%. For the same molecule, the inhibition at 10 µM at human CB-2 receptor (setting [1]) is 22%.
Consider `CC(NS(=O)(=O)/C=C/c1nn(Cc2ccccc2)c2c1C[S+]([O-])CC2)c1ccccc1` (centres unmarked) [Cpd 29, (E)-2-(1-benzyl-5-oxo-4,5,6,7-tetrahydro-1H-5λ^4-thiopyrano[4,3-c]pyrazol-3-yl)-ethenesulfonic acid (1-phenyl-ethyl)-amide], for which the inhibition at 10 µM on human CB1 receptor worked out at 8%.
For `C[C@H](NC(=O)/C=C/c1nn(Cc2ccccc2)c2c1CSCC2)c1ccccc1` [Cpd 32, (2E)-3-(1-benzyl-1,4,6,7-tetrahydro-thiopyrano[4,3-c]pyrazol-3-yl)-N-[(1S)-1-phenyl-ethyl]-acrylamide], the inhibition at 10 µM on human CB-2 receptor (setting [1]) is 47%; at human CB1 receptor it was 35%.
Take `C[C@H](NC(=O)/C=C/c1nn(Cc2ccccc2)c2c1CS(=O)(=O)CC2)c1ccccc1` [Cpd 36, (2E)-3-(1-benzyl-5,5-dioxo-4,5,6,7-tetrahydro-1H-5λ^6-thiopyrano[4,3-c]pyrazol-3-yl)-N-[(1S)-1-phenyl-ethyl]-acrylamide]: at human CB1 receptor, the inhibition at 1 µM turned out to be 25.5% and the inhibition at 10 µM was 1%.
